Assay results: patent EP2527351B1, “Lipophosphonoxins, method of their preparation and use” (priority 2011, dated 2012)
In brackets after ≈: the same amount, converted by molar mass.

Legend:
[1] = tested on: E. faecium VanA 419/ana; experiment: Microdilution MIC, resistant strain; conditions: vancomycin-resistant strain, 24/48 hours at 37°C
Experimental: (§2) Antimicrobial activity is assessed using the standard microdilution method determining the minimum inhibitory concentration (MIC) of the tested samples leading to inhibition of bacterial growth. Disposable microtitration plates are used for the tests. The samples were diluted in brain heart infusion broth (Himedia, Laboraties Pvt. Ltd., ? eská republika) and Mueller-Hinton broth (HiMedia Laboraties, see above) to yield a concentration range between 200 µg/ml and 1.5625 µg/ml. The plates are inoculated with a standard amount of the tested microbe - the inoculum density in each well is equal to 10^5-6 CFU/ml. The MIC is read after 24/48 hours of incubation at 37°C as the minimum inhibitory concentration of the tested substance that inhibits the growth of the bacterial strains.
(§3) Standard reference bacterial strains (E. faecalis CCM 4224, S. aureus CCM 4223) from the Czech Collection of Microorganisms (CCM), Faculty of Science, Masaryk University Brno, S. agalactiae, B. subtilis, methicilin-resistant S. aureus 4591, fluoroquinolone-resistant S. haemolyticus 16568, vancomycin-resistant E. faecium VanA419/ana and methicilin-resistant S. epidermidis 8700/B strains obtained from the Teaching Hospital Olomouc were used. All tested microorganisms were stored in cryotubes (ITEST plus, Czech Republic) at -80°C. […]

[2] = tested on: S. haemolyticus 16568; experiment: Microdilution MIC, resistant strain; conditions: fluoroquinolone-resistant strain, 24/48 hours at 37°C
Experimental: as §2, §3

[3] = tested on: S. epidermidis 8700/B; experiment: Microdilution MIC, resistant strain; conditions: methicilin-resistant strain, 24/48 hours at 37°C
Experimental: as §2, §3

[4] = tested on: normal human erythroid progenitor cells; experiment: CytoTox-ONE Homogeneous Membrane Integrity Assay (LDH release); format: cell-based; conditions: cytotoxicity, CytoToxOne, after 4 hours
Experimental: Human immature erythroid progenitors isolated from umbilical cord blood are cultivated in the StemSpan serum-free medium (StemCell Technologies) in the presence of the stem cell factor (SCF, 100 ng/ml), erythropoetin (EPO, 33.34 nkat/ml) and dexamethasone (1 µmol.l^-1) (Panzenbock et al. 1998). Cells are plated at 25000 cells/well/20 µl in 384-well plates immediately before addition of lipophosphonoxine compound from particular examples. After 48 hours of incubation at 37 °C in 5% CO2 viability is determined by using the commercial CellTiter-Blue® Cell Viability Assay (Promega, Cat.# G8082). […] After an incubation step, data are recorded.
Cytotoxicity is determined after 4 hours at 37 °C in 5% CO2 using commercial CytoTox-ONE™ Homogeneous Membrane Integrity Assay (Promega, Cat.# G7892), a fluorometric method for estimating the number of non-viable cells present in multiwell plates. […] LDH released into the culture medium is measured with a 10-minute coupled enzymatic assay that results in the conversion of resazurin into a fluorescent resorufin product. The amount of fluorescence produced is proportional to the number of lysed cells.
(§1) The fluorescence intensity is measured using the EnVision plate reader (PerkinElmer). Data are analyzed using GraphPad Prism 5.0 statistical software.

[5] = tested on: E. faecalis CCM 4224; experiment: Microdilution MIC, reference strain; conditions: read after 24/48 hours at 37°C
Experimental: as §2
(§4) Standard reference bacterial strains (E. faecalis CCM 4224, S. aureus CCM 4223) from the Czech Collection of Microorganisms (CCM), Faculty of Science, Masaryk University Brno, S. agalactiae, B. subtilis, methicilin-resistant S. aureus 4591, fluoroquinolone-resistant S. haemolyticus 16568, vancomycin-resistant E. faecium VanA419/ana and methicilin-resistant S. epidermidis 8700/B strains obtained from the Teaching Hospital Olomouc were used. All tested microorganisms were stored in cryotubes (ITEST plus, Czech Republic) at -80°C.

[6] = tested on: S. aureus MRSA 4591; experiment: Microdilution MIC, resistant strain; conditions: methicilin-resistant strain, 24/48 hours at 37°C
Experimental: as §2, §3

[7] = tested on: normal erythroid progenitor cells; experiment: CellTiter-Blue Cell Viability Assay; format: cell-based, Human; conditions: 48 hours of incubation
Experimental: Human immature erythroid progenitors isolated from umbilical cord blood are cultivated in the StemSpan serum-free medium (StemCell Technologies) in the presence of the stem cell factor (SCF, 100 ng/ml), erythropoetin (EPO, 33.34 nkat/ml) and dexamethasone (1 µmol.l^-1) (Panzenbock et al. 1998). Cells are plated at 25000 cells/well/20 µl in 384-well plates immediately before addition of lipophosphonoxine compound from particular examples. After 48 hours of incubation at 37 °C in 5% CO2 viability is determined by using the commercial CellTiter-Blue® Cell Viability Assay (Promega, Cat.# G8082). The assay is based on the ability of living cells to convert a redox dye (resazurin) into a fluorescent end product (resorufin). […] The homogeneous assay procedure involves adding the single reagent directly to cells cultured in serum-supplemented medium. After an incubation step, data are recorded.
as §1

[8] = tested on: B. subtilis; experiment: Microdilution MIC, reference strain; conditions: read after 24/48 hours at 37°C
Experimental: as §2, §4

[9] = tested on: S.agalactiae; experiment: Microdilution MIC, reference strain; conditions: read after 24/48 hours at 37°C
Experimental: as §2, §4

[10] = tested on: cyst formation; conditions: cited from earlier work
[11] = tested on: Giardia trophozoite growth; conditions: cited from earlier work
[12] = tested on: mice; conditions: mouse, in vivo; cited from earlier work
[13] = tested on: Mycobacterium tuberculosis strains; conditions: drug-susceptible strains, in vitro; cited from earlier work

Compound	MIC E. faecium VanA 419/ana [1]	MIC S. epidermidis 8700/B [3]	MIC E. faecalis CCM 4224 [5]	IC50 [7]	[Max. safety concentration] [7]	MIC B. subtilis [8]	MIC S.agalactiae [9]	also measured
CCCCCCCCCCCCCCOP(=O)(CCN1C[C@@H](O)[C@H](O)C1)OC[C@H]1O[C@@H](n2ccc(=O)[nH]c2=O)[C@H](O)[C@@H]1O (stereo partly drawn) [Example 17, Tetradecyl uridin-5'-yl 2-([3R,4R]-3,4-dihydroxypyrrolidin-l-N-yl)ethylphosphonate]	12,5 µg/ml	12,5 µg/ml	12,5 µg/ml	47 µg/mL (≈ 74.2 µM)	31 µg/mL	6,25 µg/ml	6,25 µg/ml	MIC S. haemolyticus 16568 [2]: 12,5 µg/ml; EC50 [4]: 302 µg/mL (≈ 477 µM); [Max. safety concentration] [4]: 125 µg/mL; MIC S. aureus MRSA 4591 [6]: 25 µg/mL (≈ 39.4 µM)
O=c1ccn([C@@H]2O[C@H](COP(=O)(O)CCN3C[C@@H](O)[C@H](O)C3)[C@@H](O)[C@H]2O)c(=O)[nH]1 [phosphonoxin]								cyst formation [10]: did not specifically inhibit; vegetative growth [11]: potently inhibited
Hexadecyloxypropyl uridin-5'-yl 2-([3R,4S,5S]-3,4-trihydroxypiperidin-1-N-yl)ethyl-phosphonate [Example 12]				141 µg/mL	62 µg/mL		12,5 µg/ml	
Hexadecyloxypropyl uridin-5'-yl 2-([3R,5R]-3,4-dihydroxypiperidin-1-N-yl)ethyl-phosphonate [Example 11]	6,25 µg/ml	6,25 µg/ml	12,5 µg/ml	40 µg/mL	31 µg/mL	6,25 µg/ml	6,25 µg/ml	
Hexadecyloxypropyl uridin-5'-yl 2-([3R,5R]-3,4-dihydroxypiperidin-1-N-yl)ethylphosphonate [Example 13]				45 µg/mL	15 µg/mL		6,25 µg/ml	
caprazamycins [CPZs]								toxicity in mice [12]: no significant toxicity; MIC [13]: 3.13 µg/mL
